Source: PubChem BioAssay AID248 (DTP/NCI, 2004)
“And” between values parts separate entries of the source, which are not always exact repeats. Equal entries are not always repeated. Inconclusive results and toxic doses are left out.

Tested on: L1210 leukemia ip in BDF1 mice, survival T/C
Assay: NCI In Vivo Anticancer Drug Screen. Data for tumor model L1210 Leukemia (intraperitoneal) in B6D2F1 (BDF1) mice
Settings: higher = longer survival
How it was run: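 Ratio derived from survival: compound-dosed mice over vehicle-dosed mice, all bearing a transplantable tumor.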

[1] = endpoint: mean survival time, dose: 100.0 mg/kg/injection, schedule: Q04DX003 (ip), vehicle: saline with Tween-80
[2] = endpoint: mean survival time, dose: 100.0 mg/kg/injection, schedule: Q04DX002 (ip), vehicle: Klucel (hydroxypropylcellulose) (HPC)
[3] = endpoint: mean survival time, dose: 200.0 mg/kg/injection, schedule: Q04DX002 (ip), vehicle: Klucel (hydroxypropylcellulose) (HPC)
[4] = endpoint: mean survival time, dose: 400.0 mg/kg/injection, schedule: Q04DX002 (ip), vehicle: Klucel (hydroxypropylcellulose) (HPC)
[5] = endpoint: mean survival time, dose: 25.0 mg/kg/injection, schedule: Q04DX003 (ip), vehicle: saline
[6] = endpoint: mean survival time, dose: 50.0 mg/kg/injection, schedule: Q04DX003 (ip), vehicle: saline
[7] = endpoint: mean survival time, dose: 100.0 mg/kg/injection, schedule: Q04DX003 (ip), vehicle: saline
[8] = endpoint: mean survival time, dose: 200.0 mg/kg/injection, schedule: Q04DX003 (ip), vehicle: saline
[9] = endpoint: mean survival time, dose: 400.0 mg/kg/injection, schedule: Q04DX003 (ip), vehicle: saline

CCCCCCCCCCCCCCCCCc1nc(N)nc(N(C)C)n1
T/C (endpoint: mean survival time, dose: 25.0 mg/kg/injection, schedule: Q04DX003 (ip), vehicle: saline with Tween-80): 97 % of control | T/C (endpoint: mean survival time, dose: 50.0 mg/kg/injection, schedule: Q04DX003 (ip), vehicle: saline with Tween-80): 96 % of control | T/C [1]: 97 % of control

Cc1ccc(C)c(NC(=O)c2ccc(C(=O)O)cc2C(=O)O)c1
T/C (endpoint: mean survival time, dose: 100.0 mg/kg/injection, schedule: Q01DX009 (ip), vehicle: Klucel (hydroxypropylcellulose) (HPC)): 95 % of control | T/C [2]: 98 % of control | T/C (endpoint: mean survival time, dose: 200.0 mg/kg/injection, schedule: Q01DX009 (ip), vehicle: Klucel (hydroxypropylcellulose) (HPC)): 100 % of control | T/C [3]: 98 % of control | T/C (endpoint: mean survival time, dose: 400.0 mg/kg/injection, schedule: Q01DX009 (ip), vehicle: Klucel (hydroxypropylcellulose) (HPC)): 97 % of control | T/C [4]: 95 % of control

CCC(=O)n1c(=O)n(C2CCN(CCCS(=O)(=O)c3ccccc3)CC2)c2ccccc21
T/C (endpoint: mean survival time, dose: 50.0 mg/kg/injection, schedule: Q01DX001 (ip), vehicle: Klucel (hydroxypropylcellulose) (HPC)): 95 % of control | T/C (endpoint: mean survival time, dose: 100.0 mg/kg/injection, schedule: Q01DX001 (ip), vehicle: Klucel (hydroxypropylcellulose) (HPC)): 95 % of control | T/C (endpoint: mean survival time, dose: 200.0 mg/kg/injection, schedule: Q01DX001 (ip), vehicle: Klucel (hydroxypropylcellulose) (HPC)): 100 % of control

COC(=O)Nc1cccc(-c2nc3ccc(NC(=O)OC)cc3c(=O)n2-c2ccccc2)c1
T/C (endpoint: mean survival time, dose: 6.25 mg/kg/injection, schedule: Q01DX009 (ip), vehicle: Klucel (hydroxypropylcellulose) (HPC)): 94 % of control and 98 % of control | T/C (endpoint: mean survival time, dose: 12.5 mg/kg/injection, schedule: Q01DX009 (ip), vehicle: Klucel (hydroxypropylcellulose) (HPC)): 97 % of control and 101 % of control | T/C (endpoint: mean survival time, dose: 25.0 mg/kg/injection, schedule: Q01DX009 (ip), vehicle: Klucel (hydroxypropylcellulose) (HPC)): 102 % of control and 88 % of control | T/C (endpoint: mean survival time, dose: 25.0 mg/kg/injection, schedule: Q01DX009 (ip), vehicle: other): 113 % of control | T/C (endpoint: mean survival time, dose: 25.0 mg/kg/injection, schedule: Q01DX009 (oral), vehicle: Klucel (hydroxypropylcellulose) (HPC)): 93 % of control and 97 % of control | T/C [5]: 97 % of control | T/C (endpoint: mean survival time, dose: 50.0 mg/kg/injection, schedule: Q01DX009 (ip), vehicle: Klucel (hydroxypropylcellulose) (HPC)): 120 % of control | T/C (endpoint: mean survival time, dose: 50.0 mg/kg/injection, schedule: Q01DX009 (ip), vehicle: other): 114 % of control | T/C (endpoint: mean survival time, dose: 50.0 mg/kg/injection, schedule: Q01DX009 (oral), vehicle: Klucel (hydroxypropylcellulose) (HPC)): 102 % of control | T/C [6]: 101 % of control | T/C (endpoint: mean survival time, dose: 100.0 mg/kg/injection, schedule: Q01DX009 (oral), vehicle: Klucel (hydroxypropylcellulose) (HPC)): 97 % of control and 101 % of control | T/C [7]: 103 % of control and 107 % of control | T/C (endpoint: mean survival time, dose: 200.0 mg/kg/injection, schedule: Q01DX009 (oral), vehicle: Klucel (hydroxypropylcellulose) (HPC)): 104 % of control and 121 % of control | T/C (endpoint: mean survival time, dose: 200.0 mg/kg/injection, schedule: Q01DX009 (oral), vehicle: other): 105 % of control | T/C [8]: 110 % of control | T/C (endpoint: mean survival time, dose: 300.0 mg/kg/injection, schedule: Q01DX009 (oral), vehicle: other): 102 % of control | T/C (endpoint: mean survival time, dose: 400.0 mg/kg/injection, schedule: Q01DX009 (oral), vehicle: Klucel (hydroxypropylcellulose) (HPC)): 116 % of control and 121 % of control | T/C (endpoint: mean survival time, dose: 400.0 mg/kg/injection, schedule: Q01DX009 (oral), vehicle: other): 116 % of control | T/C [9]: 110 % of control | T/C (endpoint: mean survival time, dose: 500.0 mg/kg/injection, schedule: Q01DX009 (oral), vehicle: other): 102 % of control | T/C (endpoint: mean survival time, dose: 800.0 mg/kg/injection, schedule: Q01DX009 (oral), vehicle: Klucel (hydroxypropylcellulose) (HPC)): 119 % of control and 120 % of control | T/C (endpoint: median survival time, dose: 25.0 mg/kg/injection, schedule: Q01DX009 (oral), vehicle: saline): 103 % of control | T/C (endpoint: median survival time, dose: 50.0 mg/kg/injection, schedule: Q01DX009 (oral), vehicle: saline): 102 % of control | T/C (endpoint: median survival time, dose: 100.0 mg/kg/injection, schedule: Q01DX009 (oral), vehicle: saline): 104 % of control | T/C (endpoint: median survival time, dose: 100.0 mg/kg/injection, schedule: Q04DX003 (ip), vehicle: other): 158 % of control | T/C (endpoint: median survival time, dose: 100.0 mg/kg/injection, schedule: Q04DX003 (ip), vehicle: saline): 185 % of control | T/C (endpoint: median survival time, dose: 200.0 mg/kg/injection, schedule: Q01DX009 (oral), vehicle: saline): 104 % of control | T/C (endpoint: median survival time, dose: 200.0 mg/kg/injection, schedule: Q04DX003 (ip), vehicle: Klucel (hydroxypropylcellulose) (HPC)): 158 % of control | T/C (endpoint: median survival time, dose: 200.0 mg/kg/injection, schedule: Q04DX003 (ip), vehicle: other): 119 % of control | T/C (endpoint: median survival time, dose: 200.0 mg/kg/injection, schedule: Q04DX003 (ip), vehicle: saline with Tween-80): 154 % of control | T/C (endpoint: median survival time, dose: 200.0 mg/kg/injection, schedule: Q04DX003 (oral), vehicle: saline): 113 % of control | T/C (endpoint: median survival time, dose: 300.0 mg/kg/injection, schedule: Q04DX003 (oral), vehicle: saline): 123 % of control | T/C (endpoint: median survival time, dose: 400.0 mg/kg/injection, schedule: Q04DX003 (ip), vehicle: Klucel (hydroxypropylcellulose) (HPC)): 178 % of control | T/C (endpoint: median survival time, dose: 400.0 mg/kg/injection, schedule: Q04DX003 (ip), vehicle: saline with Tween-80): 190 % of control | T/C (endpoint: median survival time, dose: 400.0 mg/kg/injection, schedule: Q04DX003 (oral), vehicle: saline): 112 % of control

CCOC(=O)N1C=Cc2c(c3ccccc3n2C)N1C(=O)OCC
T/C (endpoint: mean survival time, dose: 100.0 mg/kg/injection, schedule: Q01DX001 (ip), vehicle: saline): 93 % of control | T/C (endpoint: mean survival time, dose: 200.0 mg/kg/injection, schedule: Q01DX001 (ip), vehicle: saline): 104 % of control | T/C (endpoint: mean survival time, dose: 400.0 mg/kg/injection, schedule: Q01DX001 (ip), vehicle: saline): 100 % of control

CC(=O)Nc1ccn(CC(=O)c2ccco2)c(=O)n1
T/C (endpoint: mean survival time, dose: 100.0 mg/kg/injection, schedule: Q01DX009 (ip), vehicle: saline with Tween-80): 102 % of control | T/C [1]: 98 % of control | T/C (endpoint: mean survival time, dose: 200.0 mg/kg/injection, schedule: Q01DX009 (ip), vehicle: saline with Tween-80): 102 % of control | T/C (endpoint: mean survival time, dose: 200.0 mg/kg/injection, schedule: Q04DX003 (ip), vehicle: saline with Tween-80): 90 % of control | T/C (endpoint: mean survival time, dose: 400.0 mg/kg/injection, schedule: Q01DX009 (ip), vehicle: saline with Tween-80): 104 % of control | T/C (endpoint: mean survival time, dose: 400.0 mg/kg/injection, schedule: Q04DX003 (ip), vehicle: saline with Tween-80): 93 % of control

O=S1(=O)CC(N2CCCCC2)C12CC1c3ccccc3C2c2ccccc21 (stereo unspecified)
T/C [2]: 104 % of control | T/C [3]: 101 % of control | T/C [4]: 101 % of control

COc1ccc(Cl)cc1NC(=S)Nc1ccccc1
T/C [2]: 90 % of control | T/C [3]: 101 % of control | T/C [4]: 101 % of control

CCC(SC(C)=O)C(=O)O (stereo unspecified)
T/C (endpoint: mean survival time, dose: 50.0 mg/kg/injection, schedule: Q01DX009 (ip), vehicle: saline): 96 % of control | T/C (endpoint: mean survival time, dose: 100.0 mg/kg/injection, schedule: Q01DX009 (ip), vehicle: saline): 91 % of control | T/C [7]: 89 % of control | T/C (endpoint: mean survival time, dose: 200.0 mg/kg/injection, schedule: Q01DX009 (ip), vehicle: saline): 91 % of control | T/C [8]: 96 % of control

O=C1OCC2(CO)SC(c3ccccc3)NC12 (stereo unspecified)
T/C [7]: 98 % of control | T/C [8]: 92 % of control | T/C [9]: 98 % of control

NC(Cc1ccc(Cl)cc1)C(=O)O (stereo unspecified)
T/C (endpoint: mean survival time, dose: 50.0 mg/kg/injection, schedule: Q01DX001 (ip), vehicle: water): 95 % of control | T/C (endpoint: mean survival time, dose: 100.0 mg/kg/injection, schedule: Q01DX001 (ip), vehicle: water): 98 % of control | T/C (endpoint: mean survival time, dose: 200.0 mg/kg/injection, schedule: Q01DX001 (ip), vehicle: water): 93 % of control | T/C (endpoint: mean survival time, dose: 400.0 mg/kg/injection, schedule: Q01DX001 (ip), vehicle: water): 93 % of control | T/C (endpoint: mean survival time, dose: 800.0 mg/kg/injection, schedule: Q01DX001 (ip), vehicle: water): 90 % of control | T/C (endpoint: mean survival time, dose: 1200.0 mg/kg/injection, schedule: Q01DX001 (ip), vehicle: water): 96 % of control | T/C (endpoint: mean survival time, dose: 1600.0 mg/kg/injection, schedule: Q01DX001 (ip), vehicle: water): 96 % of control | T/C (endpoint: mean survival time, dose: 2000.0 mg/kg/injection, schedule: Q01DX001 (ip), vehicle: water): 93 % of control

O=[N+]([O-])c1cc([As](=O)(O)O)ccc1O
T/C (endpoint: mean survival time, dose: 6.25 mg/kg/injection, schedule: Q04DX003 (ip), vehicle: saline): 100 % of control | T/C (endpoint: mean survival time, dose: 12.5 mg/kg/injection, schedule: Q04DX003 (ip), vehicle: saline): 100 % of control | T/C [5]: 92 % of control and 100 % of control | T/C [6]: 106 % of control | T/C [7]: 105 % of control

CC(=O)Oc1cc(-c2ccc3c(c2)C2(C)c4cc(OC(C)=O)c5ccccc5c4OC2(C)N3C)c(OC(C)=O)c2ccccc12 (stereo unspecified)
T/C (endpoint: mean survival time, dose: 100.0 mg/kg/injection, schedule: Q01DX001 (ip), vehicle: other): 92 % of control | T/C (endpoint: mean survival time, dose: 200.0 mg/kg/injection, schedule: Q01DX001 (ip), vehicle: other): 88 % of control | T/C (endpoint: mean survival time, dose: 400.0 mg/kg/injection, schedule: Q01DX001 (ip), vehicle: other): 92 % of control
